Values of other authors in patent publication EP4752146A1, “NOVEL CA[…] CARRIER-DRUG CONJUGATE COMPRISING SAME” (priority 2023, dated 2025).

System: cancer cells
Conditions: background

Structure (SMILES)	activity in cancer cells relative to SN-38 (higher than SN-38)	IC50 (various cell lines)
CC[C@@]1(O)C(=O)OCc2c1cc1n(c2=O)Cc2c-1nc1cc(F)c(C)c3c1c2[C@@H](NC(=O)CO)CC3 [DXd]	approximately 10 fold	–
CCc1c2c(nc3ccc(O)cc13)-c1cc3c(c(=O)n1C2)COC(=O)[C@]3(O)CC [SN-38]	–	nanomolar range
